Consider 25 compounds from patent publication US9315518B2, “Imidazopyridin-2-one derivatives” (Merck Sharp & Dohme Corp., priority 2011, dated 2016).

The experiment addresses recombinant human mGluR2 (Homo sapiens (Human), UniProt Q14416). The experiment is described as follows: FLIPR Ca2+ mobilization assay, potentiation of glutamate response. Format: cell-based. Particulars: CHO dhfr- cells expressing human mGluR2 and Gα16; potentiation with EC20 glutamate (900 nM); read-out: hFLIPR pot. EC50. On the procedure:
Inhibition constants are determined as follows. The compounds of the present invention may be tested in a […] (FLIPR) based assay. This assay is a common functional assay to monitor Ca^2+ mobilization in whole cells expressing recombinant receptor coupled with a promiscuous G-protein. CHO dhfr-cells stably expressing recombinant human mGluR2 and Gα16 loaded with Fluo-4 AM (Invitrogen, Carlsbad Calif.) are treated with dose responses of compounds and the Ca^2+ response is monitored on a FLIPR384 (Molecular Devices, Sunnydale Calif.) for agonist activity. The potentiation response is monitored after a subsequent addition of an EC20 concentration of glutamate (900 nM). The maximum calcium response at each concentration of compound for agonist or potentiation are plotted as dose responses and the curves are fitted with a four parameters logistic equation giving EC50 and Hill coefficient using the iterative non linear curve fitting software program.
(In general: A change in cytosolic calcium serves as a functional read-out for many receptors and channels.)

recombinant human mGluR2, sequence (Q14416 19-872): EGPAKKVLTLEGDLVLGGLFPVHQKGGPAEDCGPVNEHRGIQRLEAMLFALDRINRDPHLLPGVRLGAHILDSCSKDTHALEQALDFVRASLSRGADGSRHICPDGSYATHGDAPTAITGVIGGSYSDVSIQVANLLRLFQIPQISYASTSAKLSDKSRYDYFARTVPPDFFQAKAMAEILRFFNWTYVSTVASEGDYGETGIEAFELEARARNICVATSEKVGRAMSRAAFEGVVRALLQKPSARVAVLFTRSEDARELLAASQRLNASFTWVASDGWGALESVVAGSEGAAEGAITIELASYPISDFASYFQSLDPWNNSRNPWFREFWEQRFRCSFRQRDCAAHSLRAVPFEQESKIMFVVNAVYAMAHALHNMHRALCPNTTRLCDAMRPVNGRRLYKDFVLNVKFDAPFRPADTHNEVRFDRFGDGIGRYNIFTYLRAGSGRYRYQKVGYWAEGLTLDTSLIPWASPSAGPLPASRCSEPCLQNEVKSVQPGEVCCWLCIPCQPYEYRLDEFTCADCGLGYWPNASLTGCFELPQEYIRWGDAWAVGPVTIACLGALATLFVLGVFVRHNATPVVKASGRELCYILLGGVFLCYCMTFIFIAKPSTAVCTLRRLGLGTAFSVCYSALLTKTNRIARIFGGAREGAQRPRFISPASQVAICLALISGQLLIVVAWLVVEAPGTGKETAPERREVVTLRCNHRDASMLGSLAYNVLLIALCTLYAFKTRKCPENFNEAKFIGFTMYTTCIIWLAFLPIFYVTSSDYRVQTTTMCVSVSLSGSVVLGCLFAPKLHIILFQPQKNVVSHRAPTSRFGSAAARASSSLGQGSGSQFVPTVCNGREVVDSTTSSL

As a reminder, the EC50 is the concentration that produces a half-maximal response. With `Cn1c(=O)n(CC(C)(C)C)c2ccc(C3=CC4CCC3CN4C(=O)c3csnn3)nc21` (stereo not shown) [Compound 2-8, 1-(2,2-dimethylpropyl)-3-methyl-5-[2-(1,2,3-thiadiazol-4-ylcarbonyl)-2-azabicyclo[2.2.2]oct-5-en-5-yl]-1,3-dihydro-2H-imidazo[4,5-b]pyridin-2-one], the concentration for a half-maximal effect (EC50) was 28.1 nM.
Next, `Cn1c(=O)n(CC(C)(C)C)c2ccc(C3=CC4CCC3CN4C(=O)c3cccnc3)nc21` (stereo not shown) [Compound 2-9, 1-(2,2-dimethylpropyl)-3-methyl-5-[2-(pyridin-3-ylcarbonyl)-2-azabicyclo[2.2.2]oct-5-en-5-yl]-1,3-dihydro-2H-imidazo[4,5-b]pyridin-2-one]: 100 nM.
Take `Cn1c(=O)n(CC(C)(C)C)c2ccc(C3=CC4CCC3CN4C(=O)C3CC3)nc21` (stereo not shown) [Compound 2-16, 5-[2-(cyclopropylcarbonyl)-2-azabicyclo[2.2.2]oct-5-en-5-yl]-1-(2,2-dimethylpropyl)-3-methyl-1,3-dihydro-2H-imidazo[4,5-b]pyridin-2-one]: the EC50 is 64.1 nM.
Regarding `Cn1c(=O)n(CC(C)(C)C)c2ccc(C3=CC4CCC3CN4C(=O)Cn3cncn3)nc21` (stereo not shown) [Compound 2-22, 1-(2,2-dimethylpropyl)-3-methyl-5-[2-(1H-1,2,4-triazol-1-ylacetyl)-2-azabicyclo[2.2.2]oct-5-en-5-yl]-1,3-dihydro-2H-imidazo[4,5-b]pyridin-2-one], the concentration giving a half-maximal response (EC50) came to 56.1 nM.
For `Cn1c(=O)n(CC(C)(C)C)c2ccc(C3=CC4CCC3CN4C(=O)c3ncco3)nc21` (stereo not shown) [Compound 2-34, 1-(2,2-dimethylpropyl)-3-methyl-5-[2-(1,3-oxazol-2-ylcarbonyl)-2-azabicyclo[2.2.2]oct-5-en-5-yl]-1,3-dihydro-2H-imidazo[4,5-b]pyridin-2-one] the value was 22.8 nM; for `Cn1c(=O)n(CC(C)(C)C)c2ccc(C3CC4CCC3CN4C(=O)c3ccon3)nc21` (stereo not shown) [Compound 5-2, 1-(2,2-Dimethylpropyl)-5-[2-(isoxazol-3-ylcarbonyl)-2-azabicyclo[2.2.2]-oct-5-yl]-3-methyl-1,3-dihydro-2H-imidazo[4,5-b]pyridin-2-one], 322 nM.
For `Cn1c(=O)n(CC2CC2(F)F)c2ccc(C3=CC4CCC3CN4C(=O)c3ccon3)nc21` (stereo not shown) [Compound 6-4, 1-[(2,2-Difluorocyclopropyl)methyl]-5-[2-(isoxazol-3-ylcarbonyl)-2-azabicyclo-[2.2.2]oct-5-en-5-yl]-3-methyl-1,3-dihydro-2H-imidazo[4,5-b]pyridin-2-one] the value was 29 nM; for `Cn1c(=O)n(CC(C)(C)C)c2ccc(C3=CC4CN(C(=O)C5(O)CCN(C(=O)OC(C)(C)C)C5)CC4C3)nc21` (stereo not shown) [Compound 8-6, tert-butyl 3-({5-[1-(2,2-dimethylpropyl)-3-methyl-2-oxo-2,3-dihydro-1H-imidazo[4,5-b]pyridin-5-yl]-3,3a,4,6a-tetrahydrocyclopenta[c]pyrrol-2(1H)-yl}carbonyl)-3-hydroxypyrrolidine-1-carboxylate], 513 nM.
For `Cn1c(=O)n(CC(C)(C)C)c2ccc(C3=CC4CN(C(=O)CO)CC4C3)nc21` (stereo not shown) [Compound 8-9, 1-(2,2-dimethylpropyl)-5-[2-(hydroxyacetyl)-1,2,3,3a,4,6a-hexahydrocyclopenta[c]pyrrol-5-yl]-3-methyl-1,3-dihydro-2H-imidazo[4,5-b]pyridin-2-one] the value was 270 nM; for `Cn1c(=O)n(CC(C)(C)C)c2ccc(C3=CC4CN(C(=O)C5(O)CCC5)CC4C3)nc21` (stereo not shown) [Compound 8-14, 1-(2,2-dimethylpropyl)-5-{2-[(1-hydroxycyclobutyl)carbonyl]-1,2,3,3a,4,6a-hexahydrocyclopenta[c]pyrrol-5-yl}-3-methyl-1,3-dihydro-2H-imidazo[4,5-b]pyridin-2-one], 134 nM.
Regarding `Cn1c(=O)n(CC(C)(C)C)c2ccc(C3=CC4CN(C(=O)c5ncco5)CC4C3)nc21` (stereo not shown) [Compound 8-38], the EC50 was 17.9 nM.
Next, `Cn1c(=O)n(CC(C)(C)C)c2ccc(C3CC4CN(C(=O)c5ncc[nH]5)CC4C3)nc21` (stereo not shown) [Compound 11-5, 1-(2,2-dimethylpropyl)-5-[2-(1H-imidazol-2-ylcarbonyl)octahydrocyclo-penta[c]pyrrol-5-yl]-3-methyl-1,3-dihydro-2H-imidazo[4,5-b]pyridin-2-one]: 391 nM.
For `Cn1c(=O)n(CC2CC2(F)F)c2ccc(C3=CC4CN(C(=O)c5ncco5)CC4C3)nc21` (stereo not shown) [Compound 14-6, 1-[(2,2-difluoro-cyclopropyl)methyl]-3-methyl-5-[2-(1,3-oxazol-2-ylcarbonyl)-1,2,3,3a,4,6a-hexahydrocyclo-penta[c]pyrrol-5-yl]-1,3-dihydro-2H-imidazo[4,5-b]pyridin-2-one] the value was 123 nM; for `Cn1c(=O)n(CC(C)(C)C)c2ccc(C3=CCC(C(=O)NCc4ncco4)CC3)nc21` (stereo not shown) [Compound 17-15, 4-[1-(2,2-dimethylpropyl)-3-methyl-2-oxo-2,3-dihydro-1H-imidazo[4,5-b]pyridin-5-yl]-N-(1,3-oxazol-2-ylmethyl)cyclohex-3-ene-1-carboxamide], 594 nM.
Consider `Cn1c(=O)n(CC(C)(C)C)c2ccc(C3=CCC(NC(=O)C4CCCO4)CC3)nc21` (stereo not shown) [Compound 17-20, N-{4-[1-(2,2-dimethylpropyl)-3-methyl-2-oxo-2,3-dihydro-1H-imidazo[4,5-b]pyridin-5-yl]cyclohex-3-en-1-yl}tetrahydrofuran-2-carboxamide], for which the EC50 is 333 nM.
For `Cn1c(=O)n(CC(C)(C)C)c2ccc(C3CCC(C)(C)C(NC(=O)CCn4cncn4)C3)nc21` (stereo not shown) [Compound 18-10, N-{5-[1-(2,2-dimethylpropyl)-3-methyl-2-oxo-2,3-dihydro-1H-imidazo[4,5-b]pyridin-5-yl]-2,2-dimethylcyclohexyl}-3-(1H-1,2,4-triazol-1-yl)propanamide] the value was 2190 nM.
For `Cn1c(=O)n(CC(C)(C)C)c2ccc(C3CCC(C)(C)C(NC(=O)c4ccc(OC(F)(F)F)cc4)C3)nc21` (stereo not shown) [Compound 18-42, N-{5-[1-(2,2-dimethylpropyl)-3-methyl-2-oxo-2,3-dihydro-1H-imidazo[4,5-b]pyridin-5-yl]-2,2-dimethylcyclohexyl}-4-(trifluoro-methoxy)benzamide] the value was 986 nM.
Next, `Cn1c(=O)n(CC(C)(C)C)c2ccc(C3CCC(C)(C)C(NC(=O)c4cnsn4)C3)nc21` (stereo not shown) [Compound 18-200, N-{5-[1-(2,2-dimethylpropyl)-3-methyl-2-oxo-2,3-dihydro-1H-imidazo[4,5-b]pyridin-5-yl]-2,2-dimethylcyclohexyl}-1,2,5-thiadiazole-3-carboxamide]: 43.2 nM; `Cn1cnc(S(=O)(=O)N2CCCC(c3ccc4c(n3)n(C)c(=O)n4CC(C)(C)C)C2)c1` (stereo not shown) [Compound 19-4, 1-(2,2-dimethylpropyl)-3-methyl-5-{1-[(1-methyl-1H-imidazol-4-yl)sulfonyl]piperidin-3-yl}-1,3-dihydro-2H-imidazo[4,5-b]pyridin-2-one]: 951 nM.
On to `Cc1cccc(S(=O)(=O)NC2CC(c3ccc4c(n3)n(C)c(=O)n4CC(C)(C)C)CCC2(C)C)c1` (stereo not shown) [Compound 19-62, N-{5-[1-(2,2-dimethylpropyl)-3-methyl-2-oxo-2,3-dihydro-1H-imidazo[4,5-b]pyridin-5-yl]-2,2-dimethylcyclohexyl}-3-methylbenzenesulfonamide], for which the EC50 is 116 nM.
Next, `CN1c2nc(C3=CC4CN(C(=O)C(C)(C)O)CC4C3)ccc2N(CC2CC2(F)F)S1(=O)=O` (stereo not shown) [Compound 24-7, 1-[5-{1-[(2,2-difluorocyclopropyl)methyl]-3-methyl-2,2-dioxido-1,3-dihydro[1,2,5]thiadiazolo[3,4-b]pyridin-5-yl}-3,3a,4,6a-tetrahydrocyclopenta [c]pyrrol-2(1H)-yl]-2-methyl-1-oxopropan-2-ol]: 48.5 nM; `CN1c2nc(C3=CCN(C(=O)c4ccon4)C3)ccc2N(CC2CC2(F)F)S1(=O)=O` (stereo not shown) [Compound 24-20, 1-[(2,2-difluorocyclopropyl)methyl]-5-[1-(isoxazol-3-ylcarbonyl)-2,5-dihydro-1H-pyrrol-3-yl]-3-methyl-1,3-dihydro[1,2,5] thiadiazolo[3,4-b]pyridine 2,2-dioxide]: 177 nM.
For the compound `CN1c2nc(C3CCCNC3)ccc2N(CC2CC2(F)F)S1(=O)=O` (stereo not shown) [Compound 25-5, 1-[(2,2-difluorocyclopropyl)methyl]-3-methyl-5-piperidin-3-yl-1,3-dihydro[1,2,5] thiadiazolo[3,4-b]pyridine 2,2-dioxide], the EC50 was 359 nM.
For the compound `CC1C(c2ccc3c(n2)N(C)S(=O)(=O)N3CC2CC2(F)F)C1C(C)(C)O` (stereo not shown) [Compound 34-3, 2-(2-{1-[(2,2-difluorocyclopropyl)methyl]-3-methyl-2,2-dihydro[1,2,5]thiadiazolo[3,4-b]pyridin-5-yl}-3-methylcyclopropyl) propan-2-ol], the EC50 is 14.4 nM.
Next, `Cn1cnc(C(=O)NCCCCc2ccc3c(n2)n(C)c(=O)n3CC(C)(C)C)c1` [Compound 38-5, N-{4-[1-(2,2-dimethylpropyl)-3-methyl-2-oxo-2,3-dihydro-1H-imidazo[4,5-b]pyridin-5-yl]butyl}-1-methyl-1H-imidazole-4-carboxamide]: 1180 nM.
